Experimental findings from patent US20240180878A1, “AMIDE DERIVATIVES OF BUTYRIC ACID FOR USE IN THE TREATMENT OR PREVENTION OF SARS-COV-2 INFECTION” (RHEA INNOVATIONS S.R.L., priority 2021, published 2024) are described below.

Assay [1] relates to monocyte chemoattractant protein-1 (MCP-1). Description: Small intestinal biopsy organ culture, qRT-PCR gene expression. The settings on record: human small intestine biopsies, 2 mM FBA vs medium alone. The assay is classed as cell-based.
In assay [2] the test system is TMPRSS2. Description: SARS-CoV-2 infection model in Caco-2 cells, gene expression. The note with it: Caco-2 pretreated with 2 mM FBA for 24 h, then 1 MOI wild-type SARS-CoV-2 for 72 h. The assay is classed as cell-based, human. How it is done:
(§1) The SARS-CoV-2 infection was performed on Caco-2, at 15 days post-confluence, using SARS-CoV-2 wild-type strain. Before the infection, cells were incubated with 2 mM of FBA for 24 h at 37° C. 1 MOI of SARS-CoV-2 was added to the Caco-2 monolayer for 72 h. Then, SARS-CoV-2 inoculum was removed, the cells were washed three times with PBS 1× and were harvested for RNA, proteins extraction and for fluorescence microscopy analysis.
(§2) RNA samples were extracted, processed and analyzed as described above. Western blotting was performed on the total protein extracts of infected Caco-2 cells pretreated with FBA. For the total protein fraction, the harvested cells were washed in cold phosphate-buffered saline (PBS) and lysed in protein lysis buffer (RIPA). Protein concentrations in cell extracts were determined using the Bradford assay (BioRad, Milan, Italy). Thirty microgram total lysates were loaded onto 10% SDS-PAGE and then transferred to nitrocellulose membranes (ImmobilonR-Transfer Membrane, Tullagreen, Carrigtwohill, Co). The membranes were blocked with 5% non-fat milk in PBS, pH 7.6, 0.2% Tween 20 (PanReac AppliChem) and probed overnight at 4° C. with the specific primary antibodies for ACE2 (1:2000; Abcam). After washing in PBS, pH 7.6, 0.2% Tween 20, the membranes were incubated with a horseradish peroxidase-conjugated goat anti-rabbit antibody (1:2000; Abcam). The immunoblots were visualized using ECL detection kits, with enhanced chemiluminescence (Pierce, Rockford, IL, USA). A mouse β-actin antibody (1:5000; Elabscience) was used as the control for equal loading of total lysates.

Assay [3] concerns TNF-α. Described as above. The assay is classed as cell-based, human. The note with it: Caco-2 pretreated with 2 mM FBA for 24 h, then 1 MOI wild-type SARS-CoV-2 for 72 h. The method, then:
as §1, §2

Assay [4] relates to MCP-1. Described as above. The class given is cell-based, human. The note with it: Caco-2 pretreated with 2 mM FBA for 24 h, then 1 MOI wild-type SARS-CoV-2 for 72 h. The method, then: as §1, §2
Assay [5] relates to CXCL1. The description is as above. The class given is cell-based, human. The note with it: Caco-2 pretreated with 2 mM FBA for 24 h, then 1 MOI wild-type SARS-CoV-2 for 72 h. How it is done: as §1, §2
Assay [6] relates to VEGFβ. Described as above. The note with it: Caco-2 pretreated with 2 mM FBA for 24 h, then 1 MOI wild-type SARS-CoV-2 for 72 h. The assay is classed as cell-based, human. The method, then:
as §1, §2

Assay [7] deals with MCP-1. The experiment in a line: Human respiratory epithelial cell line Calu3, qRT-PCR gene expression. The assay is classed as cell-based. The settings on record: Calu3 cells, 2 mM FBA, 24 h of incubation.
In assay [8] the test system is IL-15. The description is as above. The class given is cell-based. The note with it: Calu3 cells, 2 mM FBA, 24 h of incubation.
Assay [9] has as its system TMPRSS2. The experiment in a line: Human enterocytes cell line (Caco-2), qRT-PCR gene expression. The assay is classed as cell-based. The settings on record: Caco-2 cells, 2 mM FBA (maximal effective dose), 24 h of incubation.
The test system of assay [10] is SARS-CoV-2 wild-type strain. The class given is cell-based. The settings on record: Caco-2 pretreated with 2 mM FBA for 24 h, then 1 MOI wild-type SARS-CoV-2 for 72 h.
For assay [11], the system named is tumor necrosis factor-alpha (TNF-α). Description: Small intestinal biopsy organ culture, qRT-PCR gene expression. The settings on record: human small intestine biopsies, 2 mM FBA vs medium alone. The class given is cell-based. For orientation: In qPCR the cycle at which signal appears reflects the starting amount.
Assay [12] deals with IL-1β. Description: SARS-CoV-2 infection model in Caco-2 cells, gene expression. The assay is classed as cell-based, human. The settings on record: Caco-2 pretreated with 2 mM FBA for 24 h, then 1 MOI wild-type SARS-CoV-2 for 72 h.
For assay [13], the system named is ACE2. The experiment in a line: Small intestinal biopsy organ culture, qRT-PCR gene expression. The assay is classed as cell-based. The settings on record: human small intestine biopsies, 2 mM FBA for 24 h vs medium alone.
Assay [14] deals with TMPRSS2. The assay is described as above. The assay is classed as cell-based. The note with it: human small intestine biopsies, 2 mM FBA for 24 h vs medium alone.
The test system of assay [15] is MCP-1. Description: Human enterocytes cell line (Caco-2), qRT-PCR gene expression. The class given is cell-based. The note with it: Caco-2 cells, 2 mM FBA (maximal effective dose), 24 h of incubation.
Assay [16] has as its system ACE2. Description: SARS-CoV-2 infection model in Caco-2 cells, expression (qRT-PCR, Western blotting). The assay is classed as cell-based, human. The note with it: Caco-2 pretreated with 2 mM FBA for 24 h, then 1 MOI wild-type SARS-CoV-2 for 72 h. How it is done:
as §1
RNA samples were extracted, processed and analyzed as described above. Western blotting was performed on the total protein extracts of infected Caco-2 cells pretreated with FBA. For the total protein fraction, the harvested cells were washed in cold phosphate-buffered saline (PBS) and lysed in protein lysis buffer (RIPA). Protein concentrations in cell extracts were determined using the Bradford assay (BioRad, Milan, Italy). Thirty microgram total lysates were loaded onto 10% SDS-PAGE and then transferred to nitrocellulose membranes (ImmobilonR-Transfer Membrane, Tullagreen, Carrigtwohill, Co). […]
Western blotting was performed on the total protein extracts of infected Caco-2 cells pretreated with FBA. […] Protein concentrations in cell extracts were determined using the Bradford assay (BioRad, Milan, Italy). […]

In assay [17] the test system is TMPRSS2. Description: Human respiratory epithelial cell line Calu3, qRT-PCR gene expression. The class given is cell-based. The settings on record: Calu3 cells, 2 mM FBA, 24 h of incubation.
The test system of assay [18] is ACE2. The experiment in a line: Human enterocytes cell line (Caco-2), qRT-PCR gene expression. The settings on record: Caco-2 cells, 2 mM FBA (maximal effective dose), 24 h of incubation. The assay is classed as cell-based.
Assay [19] relates to ACE2. Description: Human respiratory epithelial cell line Calu3, qRT-PCR gene expression. The assay is classed as cell-based. The note with it: Calu3 cells, 2 mM FBA, 24 h of incubation.
Assay [20] relates to TNF-α. The assay is described as above. The assay is classed as cell-based. The settings on record: Calu3 cells, 2 mM FBA, 24 h of incubation.
The subject of assay [21] is TNF-α. Description: Human enterocytes cell line (Caco-2), qRT-PCR gene expression. The assay is classed as cell-based. The settings on record: Caco-2 cells, 2 mM FBA (maximal effective dose), 24 h of incubation.
In assay [22] the test system is interleukin (IL)-15. The experiment in a line: Small intestinal biopsy organ culture, qRT-PCR gene expression. The assay is classed as cell-based. The note with it: human small intestine biopsies, 2 mM FBA vs medium alone.
Assay [23] has as its system IL-15. The experiment in a line: Human enterocytes cell line (Caco-2), qRT-PCR gene expression. The assay is classed as cell-based. The settings on record: Caco-2 cells, 2 mM FBA (maximal effective dose), 24 h of incubation.

Consider `CCCC(=O)NC(Cc1ccccc1)C(N)=O` (centres unmarked) [FBA, N-(1-carbamoyl-2-phenyl-ethyl) butyramide], for which the “expression of MCP-1” value was “significant reduction” in assay [1], “inhibit” in assay [4] and “downregulate” in assay [7]. Also, the TMPRSS2 expression entry is recorded as “inhibit” in assay [2] and “significantly reduce” in assay [9]. For the same compound, the “expression of TNF-α” value in [3] is recorded as “inhibit”; in assay [11] it was “significant reduction”; in assay [20], “downregulate”. The “expression of CXCL1” value in assay [5] is “inhibit”. Also, the “expression of VEGFβ” value in assay [6] was “inhibit”. Also, the “expression of IL-15” value in [8] was “downregulate”. Further, in assay [10], the virus entry entry was “inhibit”. Also, the “expression of IL-1β” value in assay [12] is given as “inhibit”. In addition, the “expression of ACE2” value in assay [13] was “significantly decreased”; in [19], “downregulate”. In addition, the “expression of TMPRSS2” value is listed as “significantly decreased” in [14] and “downregulate” in assay [17]. In assay [15], the MCP-1 expression entry was “significantly reduce”. Besides, the ACE2 expression entry was “inhibit” in [16] and “significantly reduce” in assay [18]. In addition, the TNF-α expression result in assay [21] is “significantly reduce”. Moreover, in [22], the “expression of interleukin (IL)-15” value was “significant reduction”. Also, in assay [23], the IL-15 expression entry was “significantly reduce”.
